US12486401B2, “‘Smart’ hydrogel for the radiosensitization and sustained delivery of therapeutics triggered by irradiation” (The Trustees of the University of Pennsylvania, priority 2019, dated 2025)

Assays:
[1] = Cargo loading efficiency of Se-PCPP hydrogel (UV-Vis / ICP-OES); type: physicochemical; conditions: UV-vis spectroscopy
Experimental: Se-PCPP hydrogel: A mixture of 1 mL PCPP (4 mg·mL^−1, PBS) and 10.3 mg Na2HPO4 were mixed together and pH was adjusted to 7.4 by addition of HCl (1 M). Next, 1.4 μL of selenocystamine dihydrochloride (110 mg·mL^−1, PBS) were added to the mixture and vortexed for 30 seconds. The mixture was dropping into 10 mL of a CaCl2 (8.8%, DI H2O) and left to react under vigorous stirring for 20 minutes at room temperature. Finally, the solution was transferred to conical tubes and centrifuged at 2 k rpm for 8 min. The supernatant was discarded, and the pellet was re-suspended in DI water. After repeating this process three times, the Se-PCPP solution was re-suspended in DI water, vortexed at 14 k rpm and stored at 4° C. The final concentration of […] in the sample was determined using ICP-OES performed on a Spectro Genesis ICP.
Cargo loaded Se-PCPP hydrogel: For the cargo loaded Se-PCPP hydrogel, the PCPP (4 mg/mL, PBS) solution was mixed with the desired amount of cargo (solutions of doxorubicin, FITC-BSA or quisinostat at 1 mg/mL) and 10.3 mg Na2HPO4. The total volume was completed to 2 mL with PBS, pH was adjusted to 7.4 by addition of HCl (1 M) and incubated for 10 minutes before cross-linking with selenocystamine dihydrochloride as described above. The final drug concentration in the sample were determined using UV-Vis spectroscopy by determining the loading efficiency (LE), calculated as follows: % LE=([stock drug]−[non-loaded drug]/[stock drug])*100.

U251 DR5-Luc cells = assay: Cell based high throughput death receptor screen (DR5-Luc reporter bioluminescence); conditions: compound at 100 nM, 24 h; positive control Tunicamycin 100 nM
Experimental: High throughput screening (HTS) was performed by the HTS core at the University of Pennsylvania. U251 DR5-Luc cells were plated at 2.0×10^3 cells/well across ten 384 well plates. Plates were then incubated in a humidified environment at 37° C. and 5% CO2 for twenty-four hours. Compound from the Selleckchem Bioactive Compound Library I was added to each well at 100 nM (approximately 3200 compounds). Tunicamycin (100 nM) and DMSO (0.1% v/v) served a positive and negative plate controls. Brite-Lite (PerkinElmer, Waltham, MA) reagent was added all plates twenty-four hours following the addition of compound, and plates were assayed on Envision Xcite (PerkinElmer) plate reader. The mean (μ) and standard deviation (σ) for each plate was used to transform total flux for each compound (xi) into z-scores using the formula z=(xi−μ/σ). Calculation of Z-prime for this screening assay was based upon the formula set forth by Zhang et al utilizing Tunicamycin and DMSO as a positive and negative controls respectively. Positive hits were identified as compounds that produced z-prime values greater than Tunicamycin. Reporter activity was validated following compound incubation and bioluminescence imaging on the IVIS spectrum (PerkinElmer).

T4213 = assay: Compound dilution studies and cell viability (Cell Titer Glo); type: cell-based; conditions: for IC50: T4213, 72 h
Experimental: (§1) Cells were plated at density of 7.5-1.0×10^4 cells/well in 96 well plates using their respective media. Plates were then incubated in a humidified environment at 37° C. and 5% CO2 for twenty-four hours. An eleven-point dilution series of positive hits from our HTS screen was added to each plate. Cells treated with 0.1% DMSO served as a vehicle control. Plates were incubated with compound for seventy-two hours at 37° C. and 5% CO2, followed by addition of Cell Titer Glo® (Promega). Bio-luminescent readings were obtained using a Synergy HT luminometer (BioTek, Winooski, VT). Raw bio-luminescent values were normalized to their vehicle treated controls, and then fit to a modified Hill Equation using OriginPro 8 (OriginLab, Northampton, MA) in order to calculate IC50 values. All dilution series experiments were performed as biological triplicates.

NS039 = assay: as above; type: cell-based, human; conditions: for IC50: NS039, 72 h
Experimental: as §1

[2] = Hydrogel degradation and cargo release after X-ray irradiation; type: physicochemical
Experimental: X-ray irradiation The radiation dose delivered to the sample is quantified in gray (Gy) with the relation of 1 Gy=1 J/kg. The X-ray irradiation was performed on an X-RAD 320ix irradiator (PXi, North Branford, CT) operated at 320 kV, 12.5 mA, focal spot of 8 mm^2 and with an aluminum filter of 2 mm delivering a dosage rate of 2.65 Gy/minute. In brief, the Se-PCPP hydrogel was sampled into 1 mL tube and placed in the irradiator chamber for the desired time depending onto the X-ray dose to be delivered.
Se-PCPP hydrogel ([Au]=0.2 mg/mL) was suspended into 1 mL of freshly prepared PBS/10 FBS in micro-centrifuge tubes and centrifuged at 4 k rpm for 8 minutes. Samples were irradiated with the desired X-ray dose and incubated at 37° C. for the overall experiment time. At the desired time point, samples were vortexed, centrifuged at 4000 rpm for 8 minutes and the supernatant was gently collected for quantification of the released cargo by ICP-OES or UV-vis spectroscopy. 1 mL of freshly prepared incubation medium was rapidly added to each sample, all were incubated at 37° C. until the next time point.

T4213 and NS039 cells = assay: Sphere formation assay; type: cell-based; conditions: 1.0 μM
Experimental: T4213 and NS039 cells were plated at 2000 cells/well in six well plates in the presence of 0.1% DMSO or 1.0 μM Quisinostat in biological triplicate for twelve days. On day twelve, individual wells were imaged on a Lionheart Fx microscope at 4× magnification following addition of NucBlue™ (Hoechst 33342, Invitrogen). Circular blue objects greater than 50 μm in diameter and less than […] were counted as neurospheres. Differences in sphere formation between cells and treatments were assessed using a one-way ANOVA followed by post-hoc Tukey's test in GraphPad Prism 8. P-values less than 0.05 were considered significant.

CHOP and DR5 = assay: Western blot analysis of CHOP and DR5; type: cell-based
Experimental: Western blot analysis was performed using standard techniques as understood in the art, including those described at least by S. Sheikh et. al., Mol. Cancer Res. 2019, 17 (5), 1102-1114.

[3] = test system: Patient-derived glioblastoma organoids (GBOs); assay: Brain tumor organoids, compound incubation, viability and immunofluorescence; type: cell-based, human; conditions: 1.0 μM
Experimental: Glioblastoma organoids (GBOs) were generated from primary brain tumor as previously described.3 Briefly, primary brain tumor specimens were minced into approximately 1 mm pieces following clinical confirmation of pathologic diagnosis and incubated in GBO medium containing 50% DMEM:F12 (Thermo Fisher Scientific), 50% Neurobasal (Thermo Fisher Scientific), 1× GlutaMax (Thermo Fisher Scientific), 1× NEAAs (Thermo Fisher Scientific), 1× PenStrep (Thermo Fisher Scientific), 1× N2 supplement (Thermo Fisher Scientific), 1× B27 w/o vitamin A supplement (Thermo Fisher Scientific), 1× 2-mercaptoethanol (Thermo Fisher Scientific), and […] human insulin (Sigma) per well and placed on an orbital shaker rotating at 120 rpm within a 37° C., 5% CO2, and 90% humidity sterile incubator. Organoids would generally form 2-4 weeks following initial culturing. Organoids were then incubated in GBO containing media containing either DMSO (0.1%) or 1.0 μM quisinostat with media changes every two days for seven days total. Post-treatment images were taken on brightfield microscope and samples were subsequently fixed in 4% paraformaldehyde×30 minutes for immunofluorescence analysis.
Serial tissue sections (20 μm) were sliced using a cryostat (Leica, CM3050S), and melted onto charged slides (Thermo Fisher Scientific). Slides were dried at room temperature and stored at −20° C. until ready for immunohistology. For immunofluorescence staining, the tissue sections were outlined with a hydrophobic pen (Vector Laboratories) and washed with TBS containing 0.1% Tween-20 (v/v). Non-specific binding was blocked using a solution containing 10% donkey serum (v/v), 0.5% Triton X-100 (v/v), 1% BSA (w/v), 0.1% gelatin (w/v), and 22.52 mg/ml glycine in TBST for 1 hour at room temperature. […]
GBOs were imaged on a Zeiss LSM 710 confocal microscope (Zeiss) using a 20× objective with Zen 2 software (Zeiss). Images were quantified and analyzed using ImageJ software. […]

T4213 orthotopic tumor = assay: Orthotopic tumor implantation and treatment with Quisinostat; type: in vivo, athymic nude mice
From the text: T4213 cells were stably modified using a lentiviral vector containing GFP and Luciferase (Biosettia, San Diego, CA). Cells were resuspended in serum free media, and then 3.0×10^5 cells were stereotactically injected into the right striatum of five-week female athymic nude mice (Charles River Labs). Tumor bioluminescence was quantified on the IVIS spectrum (PerkinElmer, Hopkinton, MA) following intraperitoneal administration of D-Luciferin (Goldbio, St Louis MO) two days following cell implantation. In a separate experiment, mice underwent serial bioluminescent imaging following orthotopic T4213 implantation. Mice were assigned to different treatment groups such that the total flux (photons/s) was equivalent between groups (6.4×10^6 photons/s). Treatment was initiated immediately following bioluminescent imaging, and consisted of once daily intraperitoneal administration of 2-Hydroxypropyl-β-cyclodextrin (vehicle, Cayman Chemical, Ann Arbor MI) or 10 mg/kg Quisinostat (Cayman Chemical) for a total of eight doses (FIG. 5A). […] Bioluminescent imaging was repeated seventy-two hours after the last treatment was administered. […] Serial bioluminescence was assessed using a one-way repeated measures ANOVA followed by a post-hoc Tukey test. Post-treatment total flux was background corrected, and the percent change in total flux was analyzed using a Mann-Whitney U test. […]

Compound	loading efficiency in Se-PCPP hydrogel [1] [%]	bioluminescent signal in cell-based death receptor assay (U251 DR5-Luc cells)	IC50 (T4213)	IC50 (NS039)	other results
COc1cccc2c1C(=O)c1c(O)c3c(c(O)c1C2=O)C[C@@](O)(C(=O)CO)C[C@@H]3O[C@H]1C[C@H](N)[C@H](O)[C@H](C)O1 [doxorubicin]	74	–	–	–	–
COc1ccc(-c2nc(N3CCOCC3)c3sc(CN(C)c4ncc(C(=O)NO)cn4)cc3n2)cn1 [CUDC-907]	–	greater than our positive control Tunicamycin	single digit nanomolar	single digit nanomolar	–
FITC-BSA	91	–	–	–	delivery profile from Se-PCPP hydrogel [2]: slower than both quisinostat and doxorubicin
O=C(/C=C/c1ccc(CN(CCO)CCc2c[nH]c3ccccc23)cc1)NO [Dacinostat]	–	greater than our positive control Tunicamycin	–	–	–
CCS(=O)(=O)Nc1ccc(Oc2ccc(F)cc2F)c(-c2cn(C)c(=O)c3[nH]ccc23)c1 [ABBV-075]	–	greater than our positive control Tunicamycin	–	–	–
Cn1cc(CNCC2CCN(c3ncc(C(=O)NO)cn3)CC2)c2ccccc21 [Quisinostat]	81	greater than our positive control Tunicamycin	single digit nanomolar	single digit nanomolar	cell morphology, sphere formation and integrity (T4213 and NS039 cells; Hoechst staining): shrunken and fragmented cell morphology; neurosphere formation (T4213 and NS039 cells; twelve days, control 120-130 neurospheres per well, p<0.05): 4-27 neurospheres per well; CHOP dependent DR5 expression (CHOP and DR5): at nanomolar concentrations; therapeutic window (ratio of IC50s between NHA and T4213) (T4213; normal human astrocytes vs T4213): favorable therapeutic window; therapeutic window (ratio of IC50s between NHA and NS039) (NS039; normal human astrocytes vs NS039): favorable therapeutic window; Caspase staining ([3]; five distinct GBO lines): increased; Ki67 staining ([3]; five distinct GBO lines): decreased; organoid size ([3]; seven days): noticeably shrink; tumor bioluminescence (T4213 orthotopic tumor; 10 mg/kg once daily intraperitoneal with breaks, seventy-two hours after last treatment): significant reduction; mouse body weight (T4213 orthotopic tumor; systemic administration): reduction of mouse body weight
